What is called EC50 is the concentration needed to bring the measured effect to its halfway point. For orientation: IC50 means the concentration needed to halve the response being measured. Higher therefore signals lower potency.

Like-named read-outs stand apart in the source and are kept apart here.

In assay [1] the target is T1, STAT6 (Homo sapiens, UniProt P42226).
T1 construct: stably transfected HaCaT keratinocyte cell line, which expresses NanoLuc luciferase reporter gene under the transcriptional control of the STAT6 responsive promoter; endogenous in cells; host or cells: HaCaT keratinocyte reporter cell line (stably transfected with a NanoLuc reporter)
T1 sequence (P42226 1-847): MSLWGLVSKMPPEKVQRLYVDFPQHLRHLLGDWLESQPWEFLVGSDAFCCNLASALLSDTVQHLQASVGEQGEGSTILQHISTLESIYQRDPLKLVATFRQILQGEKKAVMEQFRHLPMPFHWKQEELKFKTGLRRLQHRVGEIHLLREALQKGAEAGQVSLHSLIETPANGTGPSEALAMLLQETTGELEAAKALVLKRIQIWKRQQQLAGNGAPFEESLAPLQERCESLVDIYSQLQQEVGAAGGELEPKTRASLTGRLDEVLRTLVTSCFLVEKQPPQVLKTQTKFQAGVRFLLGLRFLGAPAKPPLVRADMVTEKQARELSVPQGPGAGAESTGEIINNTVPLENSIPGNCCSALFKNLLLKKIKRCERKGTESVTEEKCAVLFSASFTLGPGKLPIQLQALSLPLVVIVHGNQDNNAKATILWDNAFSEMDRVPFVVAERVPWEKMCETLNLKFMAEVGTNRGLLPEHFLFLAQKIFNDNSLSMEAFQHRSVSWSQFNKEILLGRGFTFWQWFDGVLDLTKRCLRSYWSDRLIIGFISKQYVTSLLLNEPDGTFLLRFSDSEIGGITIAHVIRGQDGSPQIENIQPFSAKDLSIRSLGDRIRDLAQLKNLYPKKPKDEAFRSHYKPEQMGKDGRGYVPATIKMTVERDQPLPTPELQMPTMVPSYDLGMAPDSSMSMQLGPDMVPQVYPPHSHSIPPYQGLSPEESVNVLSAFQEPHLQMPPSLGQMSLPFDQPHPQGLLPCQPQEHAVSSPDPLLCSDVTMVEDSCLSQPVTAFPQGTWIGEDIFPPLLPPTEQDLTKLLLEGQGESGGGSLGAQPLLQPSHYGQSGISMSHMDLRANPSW
Nature of the assay: STAT6 Reporter Luciferase Assay (IL-13 stimulated HaCaT keratinocyte NanoLuc reporter cells). The class given is cell-based. The following applies: read-out: Reporter EC50. In short, it runs like this:
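Stably transfected HaCaT cells carrying NanoLuc under the STAT6-responsive IL-13Ra2 promoter were pre-treated with compound (11-point, 4-fold series, duplicate) for 2 h at 37 °C, then stimulated with 0.12 nM IL-13 for 4 h. Nano-Glo luminescence was read after 15 min.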

The test system of assay [2] is CCL17 secretion in peripheral human whole blood. Nature of the assay: Human Whole Blood (HWB) CCL17 TR-FRET Assay (IL-13 stimulated CCL17 secretion). It is filed as cell-based. In short, it runs like this: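 Measured here: CCL17 in serum by TR-FRET (665/615 nm) after overnight (16 h) room-temperature detection. The blood, heparinized and compound-treated for 2 h, received IL-13 at 10 ng/mL final and was cultured 48 h at 37 °C.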

The mark [3] stands for this setting: IL-13 stimulated HaCaT STAT6 NanoLuc reporter cells.
Where [4] appears, read: human whole blood, IL-13 stimulated, 48 hours.
Setting [5] is: STAT6 NanoLuc luciferase reporter, IL-13 stimulated HaCaT keratinocyte cells.
Setting [6] is: Homo sapiens, 48 h, inhibition of CCL17 secretion in human whole blood, 10 ng/mL IL13, 48 hours.
Where [7] appears, read: Homo sapiens, 48 h, human whole blood, IL-13 stimulated.

`CN(C)C(=O)Nc1ccc(CNC(=O)c2nn(C3CCOC3)c3c2CN(c2ccc(C(=O)N(C)C)cn2)CC3)cc1` (single isomer, unassigned) [Example 191, rel-(R or S)-5-(5-(dimethylcarbamoyl)pyridin-2-yl)-N-(4-(3,3-dimethylureido)benzyl)-1-(tetrahydrofuran-3-yl)-4,5,6,7-tetrahydro-1H-pyrazolo[4,3-c]pyridine-3-carboxamide]: the EC50 in assay [1] (setting [3]) was found to be 32 nM. For the same compound, half-maximal inhibition in assay [2] (setting [4]) (IC50) required 126 nM.

As to `CCC(C)n1nc(C(=O)NCc2ccc(NC(=O)N(C)C)cc2)c2c1CCN(c1ccc(C(=O)N(C)C)cn1)C2` (single isomer, unassigned) [Example 235, rel-(R or S)-1-(sec-butyl)-5-(5-(dimethylcarbamoyl)pyridin-2-yl)-N-(4-(3,3-dimethylureido)benzyl)-4,5,6,7-tetrahydro-1H-pyrazolo[4,3-c]pyridine-3-carboxamide], the EC50 in assay [1] (setting [3]) was found to be 15 nM. In assay [2] (setting [4]), this compound gave an IC50 of 85 nM.

In the case of `CC(C)n1nc(C(=O)NCc2ccc(NC(=O)N3C[C@@H]4CC[C@H]3CO4)cc2)c2c1CCN(c1ccc(C(=O)N(C)C)cn1)C2` [Example 142, (1S,4S)-N-(4-((5-(5-(dimethylcarbamoyl)pyridin-2-yl)-1-isopropyl-4,5,6,7-tetrahydro-1H-pyrazolo[4,3-c]pyridine-3-carboxamido)methyl)phenyl)-2-oxa-5-azabicyclo[2.2.2]octane-5-carboxamide], in assay [1] (setting [5]), the EC50 is 15 nM. Further, the half-inhibitory concentration (IC50) in assay [2] (setting [6]) worked out at 39 nM.

For the compound `CC(C)n1nc(C(=O)NCc2ccc(NC(=O)N(C)C)cc2)c2c1CCN(c1ccc(N3C[C@@H](C)CC3=O)cn1)C2` [Example 66, (S)-N-(4-(3,3-dimethylureido)benzyl)-1-isopropyl-5-(5-(4-methyl-2-oxopyrrolidin-1-yl)pyridin-2-yl)-4,5,6,7-tetrahydro-1H-pyrazolo[4,3-c]pyridine-3-carboxamide], in assay [1] (setting [5]), the EC50 was 13 nM. This compound yielded an IC50 in assay [2] (setting [6]) of 89 nM.

For `CC(C)n1nc(C(=O)NCc2ccc(NC(=O)N(C)C)cc2)c2c1CCN(c1ccc(-n3ccnn3)cn1)C2` [Example 64, 5-(5-(1H-1,2,3-triazol-1-yl)pyridin-2-yl)-N-(4-(3,3-dimethylureido)benzyl)-1-isopropyl-4,5,6,7-tetrahydro-1H-pyrazolo[4,3-c]pyridine-3-carboxamide], in assay [1] (setting [5]), the concentration for a half-maximal effect (EC50) amounted to 4 nM. Inhibition in assay [2] (setting [6]) was half-maximal at 73 nM (IC50).

Regarding `COc1ccnc2c1CCN(C(=O)c1ccc(N3CCc4c(c(C(=O)NCc5ccc(NC(=O)N(C)C)cc5)nn4C(C)C)C3)nc1)C2` [Example 407, N-(4-(3,3-dimethylureido)benzyl)-1-isopropyl-5-(5-(4-methoxy-5,6,7,8-tetrahydro-1,7-naphthyridine-7-carbonyl)pyridin-2-yl)-4,5,6,7-tetrahydro-1H-pyrazolo[4,3-c]pyridine-3-carboxamide], in assay [1] (setting [3]), the EC50 turned out to be 10 nM. The IC50 in assay [2] (setting [7]) stood at 100 nM.

Turning to `CNC(=O)Nc1ccc(CNC(=O)c2nn(C(C)C)c3c2CN(c2ccc(N4CCOC4=O)cn2)C[C@@H]3C)cc1` [Example 520, (S)-1-isopropyl-7-methyl-N-(4-(3-methylureido)benzyl)-5-(5-(2-oxooxazolidin-3-yl)pyridin-2-yl)-4,5,6,7-tetrahydro-1H-pyrazolo[4,3-c]pyridine-3-carboxamide], in assay [1] (setting [3]), the EC50 was 1 nM. The compound further registered a half-maximal inhibitory concentration (IC50) in assay [2] (setting [7]) of 22 nM.

For `CC(CC#N)n1nc(C(=O)NCc2ccc(NC(=O)N(C)C)cc2)c2c1CCN(c1ccc(C(=O)N(C)C)cn1)C2` (racemic) [Example 358, rac-(R)-1-(1-cyanopropan-2-yl)-5-(5-(dimethylcarbamoyl)pyridin-2-yl)-N-(4-(3,3-dimethylureido)benzyl)-4,5,6,7-tetrahydro-1H-pyrazolo[4,3-c]pyridine-3-carboxamide], in assay [1] (setting [3]), the EC50 came out at 51 nM. Also, in assay [2] (setting [7]), the IC50 is 112 nM.

As to `COCC1(N)CCN(C(=O)Nc2ccc(CNC(=O)c3nn(C(C)C)c4c3CN(c3ccc(C(=O)N(C)C)cc3)C[C@@H]4C)cc2F)CC1` [Example 639, (S)-N-(4-(4-amino-4-(methoxymethyl)piperidine-1-carboxamido)-3-fluorobenzyl)-5-(4-(dimethylcarbamoyl)phenyl)-1-isopropyl-7-methyl-4,5,6,7-tetrahydro-1H-pyrazolo[4,3-c]pyridine-3-carboxamide], in assay [1] (setting [3]), the EC50 turned out to be 1 nM. In addition, the half-maximal inhibitory concentration (IC50) in assay [2] (Homo sapiens, 48 h, human whole blood, 10 ng/mL IL13, 48 hours) was 8 nM.

Turning to `CCn1nc(C(=O)NCc2ccc(NC(=O)N(C)C)cc2)c2c1[C@@H](C)CN(c1ccc(C(=O)N3Cc4cccnc4C3)cn1)C2` [Example 477, (S)-5-(5-(6,7-dihydro-5H-pyrrolo[3,4-b]pyridine-6-carbonyl)pyridin-2-yl)-N-(4-(3,3-dimethylureido)benzyl)-1-ethyl-7-methyl-4,5,6,7-tetrahydro-1H-pyrazolo[4,3-c]pyridine-3-carboxamide], the EC50 in assay [1] (setting [3]) came to 0.4 nM. The IC50 in assay [2] (setting [7]) was 4 nM.

Take `COC1CN(C(=O)Nc2ccc(CNC(=O)c3nn(C(C)C)c4c3CN(c3ccc(C(=O)N(C)C)cn3)CC4)cc2)C1` [Example 188, 5-(5-(dimethylcarbamoyl)pyridin-2-yl)-1-isopropyl-N-(4-(3-methoxyazetidine-1-carboxamido)benzyl)-4,5,6,7-tetrahydro-1H-pyrazolo[4,3-c]pyridine-3-carboxamide]: the EC50 in assay [1] (setting [3]) is 11 nM. In addition, the IC50 in assay [2] (setting [7]) is 69 nM.

As to `CCOC(=O)Nc1ccc(CNC(=O)c2nn(C(C)C)c3c2CN(c2ccc(C(=O)N(C)C)cn2)CC3)cc1` [Example 236, Ethyl (4-((5-(5-(dimethylcarbamoyl)pyridin-2-yl)-1-isopropyl-4,5,6,7-tetrahydro-1H-pyrazolo[4,3-c]pyridine-3-carboxamido)methyl)phenyl)carbamate], in assay [1] (setting [3]), the concentration for a half-maximal effect (EC50) is 17 nM. The compound also returned an IC50 in assay [2] (setting [4]) of 254 nM.

As for `CC(C)n1nc(C(=O)NCc2ccc(NC(=O)N3CCN(C)CC3)cc2)c2c1[C@@H](C)CN(c1ccc(C(=O)N(C)C)cc1)C2` [Example 132, (S)-5-(4-(Dimethylcarbamoyl)phenyl)-1-isopropyl-7-methyl-N-(4-(4-methylpiperazine-1-carboxamido)benzyl)-4,5,6,7-tetrahydro-1H-pyrazolo[4,3-c]pyridine-3-carboxamide], the EC50 in assay [1] (setting [5]) was found to be 0.2 nM. The same compound gave an IC50 in assay [2] (setting [6]) of 3.6 nM.

Regarding `CC(C)n1nc(C(=O)NCc2ccc(NC(=O)NCc3ccc(NC(=O)N(C)C)cc3)cc2)c2c1[C@@H](C)CN(c1ncc(C(=O)N(C)C)cn1)C2` [Example 492, (S)-5-(5-(dimethylcarbamoyl)pyrimidin-2-yl)-N-(4-(3-(4-(3,3-dimethylureido)benzyl)ureido)benzyl)-1-isopropyl-7-methyl-4,5,6,7-tetrahydro-1H-pyrazolo[4,3-c]pyridine-3-carboxamide], the EC50 in assay [1] (setting [3]) came out at 0.5 nM. For the same compound, in assay [2] (setting [7]), the IC50 turned out to be 4 nM.

For `CN(C)C(=O)Nc1ccc(CNC(=O)c2nn(CCC(N)=O)c3c2CN(c2ccc(C(=O)N(C)C)cn2)CC3)cc1` [Example 309, 1-(3-amino-3-oxopropyl)-5-(5-(dimethylcarbamoyl)pyridin-2-yl)-N-(4-(3,3-dimethylureido)benzyl)-4,5,6,7-tetrahydro-1H-pyrazolo[4,3-c]pyridine-3-carboxamide], the concentration for a half-maximal effect (EC50) in assay [1] (setting [3]) was 1710 nM. Further, in assay [2] (setting [7]), the half-maximal inhibitory concentration (IC50) was 4100 nM.

For the compound `CC(C)n1nc(C(=O)NCc2ccc(NC(=O)N3CCC4(COC4)C3)cc2)c2c1CCN(c1ccc(C(=O)N(C)C)cn1)C2` [Example 152, N-(4-((5-(5-(dimethylcarbamoyl)pyridin-2-yl)-1-isopropyl-4,5,6,7-tetrahydro-1H-pyrazolo[4,3-c]pyridine-3-carboxamido)methyl)phenyl)-2-oxa-6-azaspiro[3.4]octane-6-carboxamide], the half-maximal effective concentration (EC50) in assay [1] (setting [5]) came out at 31 nM. In assay [2] (setting [6]), this compound showed an IC50 of 155 nM.

With `CC(C)n1nc(C(=O)NCc2ccc(NC(=O)N(C)C)cc2)c2c1CCN(c1ccc(N3CCCS3(=O)=O)cn1)C2` [Example 146, N-(4-(3,3-dimethylureido)benzyl)-5-(5-(1,1-dioxidoisothiazolidin-2-yl)pyridin-2-yl)-1-isopropyl-4,5,6,7-tetrahydro-1H-pyrazolo[4,3-c]pyridine-3-carboxamide], the EC50 in assay [1] (setting [5]) was found to be 127 nM. This compound also gave an IC50 in assay [2] (setting [6]) of 2120 nM.

Values taken from US20250320213A1, “Nitrogen-Containing Heterocyclic Compounds” (Pfizer Inc., priority 2024, published 2025).
